Literature values, collected in patent publication US9534000B2, “Cytotoxic benzodiazepine derivatives and methods of preparation” (ImmunoGen, Inc., priority 2011, dated 2017).

Conditions: Phase I clinical evaluation

C=C1C[C@H]2C=Nc3cc(OCCCOc4cc5c(cc4OC)C(=O)N4CC(=C)C[C@H]4C=N5)c(OC)cc3C(=O)N2C1 [SJG-136]
DNA damage in circulating lymphocytes: noted at all doses
